# Results from the Kinase Knowledgebase extract (Sharma et al. 2016).
# Target: EGFR (rat) (UniProt P00533)
# Settings: rat-1/her cells
# Chain of EGFR (rat) (P00533 whole entry, looked up): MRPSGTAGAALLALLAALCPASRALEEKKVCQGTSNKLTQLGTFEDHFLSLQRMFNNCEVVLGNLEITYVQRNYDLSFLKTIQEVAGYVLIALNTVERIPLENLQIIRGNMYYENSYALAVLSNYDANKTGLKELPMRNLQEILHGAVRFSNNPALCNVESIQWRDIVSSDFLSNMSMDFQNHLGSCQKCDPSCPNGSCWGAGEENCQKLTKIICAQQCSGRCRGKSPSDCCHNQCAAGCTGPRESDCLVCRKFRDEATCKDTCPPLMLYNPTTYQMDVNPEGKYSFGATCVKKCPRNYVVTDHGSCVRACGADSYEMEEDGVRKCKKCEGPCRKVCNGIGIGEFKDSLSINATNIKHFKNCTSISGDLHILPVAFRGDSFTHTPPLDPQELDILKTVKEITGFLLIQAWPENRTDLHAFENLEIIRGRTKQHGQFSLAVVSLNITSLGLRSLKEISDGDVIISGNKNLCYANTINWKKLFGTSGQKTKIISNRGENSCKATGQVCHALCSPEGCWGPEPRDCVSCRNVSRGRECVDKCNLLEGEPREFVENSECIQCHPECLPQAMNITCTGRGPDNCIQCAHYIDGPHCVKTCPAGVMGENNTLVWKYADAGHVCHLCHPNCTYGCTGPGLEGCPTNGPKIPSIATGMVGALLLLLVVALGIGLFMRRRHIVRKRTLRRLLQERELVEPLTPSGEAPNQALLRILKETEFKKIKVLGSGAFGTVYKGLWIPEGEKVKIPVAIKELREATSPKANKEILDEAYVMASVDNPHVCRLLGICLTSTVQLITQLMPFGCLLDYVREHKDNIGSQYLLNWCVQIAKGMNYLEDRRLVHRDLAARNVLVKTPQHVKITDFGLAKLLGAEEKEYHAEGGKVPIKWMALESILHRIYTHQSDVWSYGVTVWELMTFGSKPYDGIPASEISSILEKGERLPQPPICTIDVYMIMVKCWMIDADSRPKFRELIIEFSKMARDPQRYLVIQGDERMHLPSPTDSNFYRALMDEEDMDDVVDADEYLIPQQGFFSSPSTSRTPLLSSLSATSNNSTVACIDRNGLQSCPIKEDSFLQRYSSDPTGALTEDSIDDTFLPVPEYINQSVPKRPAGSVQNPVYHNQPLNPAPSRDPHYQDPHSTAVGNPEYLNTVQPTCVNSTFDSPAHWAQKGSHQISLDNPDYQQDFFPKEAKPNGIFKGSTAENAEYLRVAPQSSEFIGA
row,IC50,SMILES
1,55 µM,COC1=C(Br)C(=O)[C@](CC#N)(OC(C)=O)C=C1Br
2,35 µM,COc1c(Br)cc(C=O)c(O)c1Br
3,10 µM,COC1=C(Br)C(=O)[C@]2(C=C1Br)CO2
4,120 µM,O=Cc1cc(Br)cc(Br)c1O

# Same assay, conditions: rat-1/her cells, dose or concentration not given here
row,SMILES,inhibition
1,COC1=C(Br)C(O)(O)[C@@](O)(CC#N)CC1Br (stereo partly drawn),0%
2,COc1c(Br)cc2c(c1Br)OCO2,0%
3,COC1=C(Br)C(=O)[C@@](O)(CC#N)C=C1Br,0%
4,COC1=C(Br)[C@H](O)[C@@](O)(CC#N)C=C1Br,0%
5,COc1c(Br)cc(CO)c(O)c1Br,0%
6,COc1ccc(C=O)c(O)c1,0%
7,COC1=C(Br)[C@@H](O)[C@@](O)(CC#N)C=C1Br,0%
8,COc1c(Br)cc(O)c(O)c1Br,0%
9,COc1c(Br)cc(CC#N)c(O)c1Br,0%
